Reference: publication PMC12693416, “From Lipid Regulation to Neuroprotection: Multitarget (Benzo)thiazine Derivatives as Promising Leads” (Molecules, 2025)
Like-named read-outs stand apart in the source and are kept apart here.

Experiments:
[1] = test system: mouse liver microsomal lipid peroxidation; experiment: Inhibition of mouse liver microsomal lipid peroxidation (LP); conditions: for IC50: read-out: LP IC50 Value, 45 min incubation; for LP % Inhibition at 100 μΜ: 100 μM compound
[2] = target: soybean lipoxygenase (LOX-3); experiment: Soybean lipoxygenase (LOX-3) inhibition; format: biochemical; conditions: after 5 min of incubation; sodium linoleate 100 μM, pH 9.0
Experimental: Lipoxygenase (LOX) inhibitory activity was determined using soybean lipoxygenase (250 U/mL) and sodium linoleate (100 μM) as substrate, in Tris–HCl buffer pH 9.0.

[3] = Radical scavenging of DPPH; conditions: DPPH 200 μM, 30 min incubation
Experimental: Compounds, dissolved in absolute methanol, at concentrations of 25–400 μM, were added to an equal volume of a methanolic solution of DPPH (final concentration 200 μM) at room temperature (22 ± 2 °C).

[4] = Iron chelation (ferrozine assay); conditions: 100 μM compound, Fe2+ 20 μM
Experimental: […] The reaction was initiated with the addition of a 100 μM aqueous ferrozine solution, which chelates iron ions, resulting in an increased maximum absorbance at 562 nm. After incubation at 37 °C for 10 min, the mixture’s absorbance is measured at 562/700 nm. Each value is expressed as the mean of 3 tests per sample [46].

[5] = test system: hyperlipidaemic mice; experiment: Tyloxapol (Triton WR 1339)-induced hyperlipidemia, plasma lipid parameters; format: in vivo; conditions: Mus musculus, ip, 24 h, i.p. 84 μmol/kg, 24 h
Experimental: An aqueous solution of Triton WR 1339 was given i.p. to mice (400 mg/kg of body weight) and one hour later the test compounds (84 μmol/kg of body weight), dissolved in saline or saline only, were administered i.p. After 24 h, blood was taken from the aorta/heart and used for the determination of plasma total cholesterol (TC), triglyceride (TG) levels, and high-density lipoprotein (HDL) levels, using commercially available kits (Biosis Cholesterol Enzymatic/PAP, Biosis Triglycerides GPO/PAP, and Biosis HDL Phosphovolframic, Biosis, Athens Greece). Levels of plasma lipids were determined in duplicate while values presented are the mean from 8 animals (per compound). The levels of low-density lipoprotein (LDL) are calculated according to the equation: LDL (mg/dL) = 3/4 * (TC-HDL).

[6] = test system: carrageenan-induced mouse paw edema; experiment: Carrageenan-induced mouse paw edema; format: in vivo, C57BL/6 mice; conditions: ip, 3.5 h, i.p. 0.30 mmol/kg, female C57BL/6, 3.5 h after carrageenan, read-out: % Edema (decrease of carrageenan-induced paw edema vs control)
Experimental: For the in vivo anti-inflammatory activity, C57BL/6 mice were injected with 0.025 mL carrageenan (2% w/v solution in saline) i.d. into the right hind paw, the left paw serving as control. The test compounds dissolved in saline (300 μmol/kg) were given i.p. right after the carrageenan injection, and 3.5 h later the produced edema was estimated as paw weight increase. Results are expressed as percentage of reduction in paw-edema and are the mean of 6 animals (per compound).

[7] = target: T1, acetylcholinesterase from eel (Electrophorus electricus, UniProt O42275); experiment: Acetylcholinesterase (AChE) inhibition (Ellman); format: biochemical; conditions: read-out: AChE Inhibition (%), 300 μM compound
T1 construct: purchased Sigma
T1 sequence (O42275 24-633): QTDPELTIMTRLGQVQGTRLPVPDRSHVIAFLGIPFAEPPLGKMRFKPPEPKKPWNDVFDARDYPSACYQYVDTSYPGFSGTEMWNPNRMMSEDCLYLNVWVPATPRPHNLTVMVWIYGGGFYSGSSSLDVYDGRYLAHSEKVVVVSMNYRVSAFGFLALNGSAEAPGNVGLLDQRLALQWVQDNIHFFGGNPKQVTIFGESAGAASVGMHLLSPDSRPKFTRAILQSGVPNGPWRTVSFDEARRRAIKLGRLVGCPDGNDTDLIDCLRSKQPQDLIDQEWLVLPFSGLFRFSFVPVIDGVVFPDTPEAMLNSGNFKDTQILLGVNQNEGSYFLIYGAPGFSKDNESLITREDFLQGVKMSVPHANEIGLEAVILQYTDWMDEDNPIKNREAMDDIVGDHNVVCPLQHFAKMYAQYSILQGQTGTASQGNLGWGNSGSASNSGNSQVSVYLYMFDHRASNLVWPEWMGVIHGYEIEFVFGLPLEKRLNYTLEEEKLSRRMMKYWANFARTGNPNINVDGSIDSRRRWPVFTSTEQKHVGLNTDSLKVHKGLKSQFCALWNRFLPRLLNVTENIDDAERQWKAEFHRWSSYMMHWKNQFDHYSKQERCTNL
Experimental: (0.31 mM) in phosphate buffer with pH = 7. The incubation mixture is monitored for 7 min at 37 °C.

[8] = plasma, vs tyloxapol control, read-out: % HDL Increase
[9] = LDL calculated as 3/4*(TC-HDL), read-out: % LDL Decrease
[10] = plasma, vs tyloxapol control, read-out: % Total Cholesterol (TC) Reduction
[11] = plasma, vs tyloxapol control, read-out: % Triglycerides (TG) Reduction

Compound `Cc1c(C)c2c(c(C)c1O)CCC(C)(C(=O)N1CCSC(c3ccc(-c4ccccc4)cc3)C1)O2` (centres unmarked) [Compound 10] has an IC50 [1] of 4 µM, an IC50 [2] of 140 µM and an IC50 [3] of 78 µM. For the same compound, the “% of Fe(II) Chelation (at 100 μM)” value [4] was 0%, the change in vivo at 84 µmol/kg [5, 8] was 32% and the change in vivo at 84 µmol/kg ([5]; ratio calculated, read-out: % HDL/LDL Increase (antiatherogenic index)) was 77%. The inhibition in vivo at 84 µmol/kg [5, 9] was 23%, the inhibition in vivo at 84 µmol/kg [5, 10] was 13% and the inhibition in vivo at 84 µmol/kg [5, 11] was 52%. For the same compound, the inhibition in vivo at 300 µmol/kg [6] was 43% and the inhibition at 300 µM [7] was roughly 45%.
Compound `CC(C)(C)c1cc(/C=C/C(=O)N2CC(c3ccc(-c4ccccc4)cc3)Sc3ccccc32)cc(C(C)(C)C)c1O` (centres unmarked) [Compound 16, (E)-1-(2-([1,1′-Biphenyl]-4-yl)-2,3-dihydro-4H-benzo[b][1,4]thiazin-4-yl)-3-(3,5-ditertbutyl-4-hydroxyphenyl)prop-2-en-1-one] has an IC50 [1] greater than 1000 µM, an IC50 [2] of 58 µM and an IC50 [3] of 141 µM. The “% of Fe(II) Chelation (at 100 μM)” value [4] was 9%, the change in vivo at 84 µmol/kg [5, 8] was 131% and the inhibition in vivo at 84 µmol/kg [5, 9] was 66%. For the same compound, the inhibition in vivo at 84 µmol/kg [5, 10] was 45%, the inhibition in vivo at 84 µmol/kg [5, 11] was 67% and the inhibition in vivo at 300 µmol/kg [6] was 45%. For the same compound, the inhibition at 300 µM [7] was 24%.
For `Cc1c(C)c2c(c(C)c1O)CCC(C)(C(=O)O)O2` (centres unmarked) [Trolox, 6-hydroxy-2,5,7,8-tetramethylchroman-2-carboxylic acid, reference compound], the “LP % Inhibition at 100 μΜ” value [1] was 43%, the IC50 [3] was 33 µM and the “% of Fe(II) Chelation (at 100 μM)” value [4] was 29%.
For `CC(C)(C)c1cc(/C=C/C(=O)O)cc(C(C)(C)C)c1O` [acrylic derivative, (E)-3-(3,5-ditertbutyl-4-hydroxyphenyl)acrylic acid, reference compound], the IC50 [3] was 77 µM.
For `O=C1O[C@H]([C@@H](O)CO)C(O)=C1O` [ascorbic acid, reference compound], the IC50 [3] was 42 µM.
`O=C(O)/C=C/c1ccccc1` [cinnamic acid, reference compound] gave an IC50 [2] greater than 300 µM.
For `O=C(O)c1cc(O)c(O)c(O)c1` [gallic acid, reference compound], the “LP % Inhibition at 100 μΜ” value [1] was 73%, the IC50 [3] was 14 µM and the “% of Fe(II) Chelation (at 100 μM)” value [4] was 98%.
`CC(C)Cc1ccc(C(C)C(=O)O)cc1` (centres unmarked) [ibuprofen, reference compound] showed an IC50 [2] greater than 300 µM.
For `COc1ccc2cc([C@H](C)C(=O)O)ccc2c1` [naproxen, reference compound], the IC50 [2] was 25 µM.
